Converted amounts (≈) assume the structure as drawn. Read-outs that look alike come from different tables or passages of the source.
What was measured:
Dunaliella parva = assay: Activity against Dunaliella parva (minimum inhibitory concentration, twofold serial dilution); type: cell-based; details: 168 h, read-out: MIC (Minimum Inhibitory Concentration)
Protocol: Tests were conducted to determine the toxicity of the marine antifouling agents of the present invention to Dunaliella. Dunaliella are indicative of soft fouling organisms.
The effectiveness of the marine antifouling agents of the present invention and 3-iodopropargyl N-butyl carbamate (Comparative) against Dunaliella parva were determined by a twofold serial dilution procedure which determined the Minimum Inhibitory Concentration ("MIC") of test compound required to inhibit the growth of an algal inoculum. […]
Cultures were grown in 50 mL of medium contained in 250 mL baffle flasks with silicone sponge closures (Bellco Glass, Vineland, N.J., #2004-00004, 28 mm), on a rotary shaker under constant cool white illumination. […] The culture was standardized to an absorbance of 0.1 at 490 nm by addition of fresh medium. […]
Solutions of test compound at 40x the highest concentration to be tested were prepared in an appropriate solvent. […] At the end of that time, the plates were examined for growth, as evidenced by easily visible green color, using a mirrored microplate reader.
Results were recorded as the median of the three replicate results and are reported below as the minimum concentration to inhibit growth (MIC).

Artemia = assay: Toxicity to Artemia (LC100 of nauplii); type: in vivo, Artemia satlina; details: 24 Hours, 25° C.
Protocol: Tests were conducted to determine the toxicity of the marine antifouling agents of the present invention to Artemia. Artemia are indicative of hard fouling organisms.
Substitute ocean water was prepared following ASTM Method D 1141-90. The water was sterilized by filtration through a 0.22 micron cellulose acetate membrane filter. San Francisco Bay Brand® (San Francisco Bay Brand, Inc., Newark, Calif.) Artemia satlina cysts were purchased from a local aquarium supply store. The cysts were hatched in a 250 mL Erlenmeyer flask. The Artemia cysts (0.2 g) were weighed into a sterilized flask. One hundred mL of sterile ASTM sea water was added to the flask. The flask was placed on an orbital shaker set at approximately 150 rotations per minute and 28° C. After 24 hours, the contents of the flask were poured into a separatory funnel. The egg shells were separated from the Artemia nauplii (larvae), as the shells floated to the top. The nauplii were returned to the flask for another 24 hours shaking. The inoculum was prepared by pouring the nauplii into a crystallizing dish 48 hours after the cysts were originally placed on the shaker. […] The number of nauplii in 3 to 4 wells was counted under a microscope. […]
Plates were read under a low magnification microscope 24 and 48 hours after the nauplii were added to the plate. […]

SMILES	MIC (Dunaliella parva) [µg/mL]	Artemia LC100 (highest dilution in which all of the nauplii are dead) (Artemia) [ppm]	MIC (Dunaliella parva; 23° C., one week incubation, median of three replicates) [µg/mL]
O=C(C(=O)c1ccccc1)c1ccccc1 [R=R^1 =H]	0.6 (≈ 2.85 µM)	12.5	
CCCCNC(=O)OCC#CI [Comparative, 3-iodopropargyl N-butyl carbamate]		25	6.2 (≈ 22.1 µM)

From patent publication US5853463A, “Marine antifouling agent” (Rohm and Haas Company, priority 1998, dated 1998)
